≈ marks a conversion by molar mass, not a printed value.
How the values were obtained:
[1] = test system: E.coli 1113; assay: FDAA metabolic labeling susceptibility test (Cy5-DAA probe, flow cytometry); assay type: cell-based, Escherichia coli; details: Escherichia coli, 1113, 2 h, read-out: MIC, FDAA
Method: (§1) The specific experimental steps are as follows: • 1. Take the colony to be tested that has been cultured overnight on the plate and fully mix it in normal saline to make a uniform bacterial solution. Dilute it into CAMHB medium to make a bacterial solution with OD600=0.05. • 2. Add 45 μl antibiotic solutions to be tested of different concentrations to 96-well plates (see Table 3 for antibiotic concentration gradient settings). • 3. Add 50 μl of bacterial solution prepared in Step 1 to the 96-well plate and mix well. • 4.5 μl of 10 mM Cy5-DAA probe was added to each well (final concentration was 0.15 mM, and its structure was shown in FIG. 1). After mixing, the probe was incubated for 2 hours in the dark. • 5. After dilution with 200 μl PBS solution, the fluorescence intensity of each sample was detected by flow cytometry. The flow detection results are shown in the attached FIG. 4-5, showing the curve of antibiotic concentration gradient and fluorescence intensity, and the MIC (minimum inhibitory concentration) is obtained by referring to this curve.

[2] = test system: E.coli 1146; assay: as above; assay type: cell-based, Escherichia coli; details: Escherichia coli, 1146, 2 h, read-out: MIC, FDAA
Method: as §1

[3] = test system: E.coli 1113; assay: Vitek 2 drug sensitivity test; assay type: cell-based, Escherichia coli; as to Sensibility: key: S: Drug sensitive; R: Drug resistance
[4] = test system: E.coli 1146; assay: Vitek 2 drug sensitivity test; assay type: cell-based, Escherichia coli; as to Sensibility: key: S: Drug sensitive; R: Drug resistance
[5] = test system: E. coli Ec11; assay: BMD susceptibility test; assay type: cell-based, Escherichia coli; details: unit assumed
[6] = test system: E. coli Ec11; assay: FaAST (FDAA metabolic labeling); assay type: cell-based, Escherichia coli; details: unit assumed
Method: as §1
(§2) Antibiotic resistant strains are shown in bold in the table below.

[7] = test system: Ec ATCC 25922; assay: FaAST (FDAA metabolic labeling); assay type: cell-based, Escherichia coli; details: unit assumed
Method: as §1, §2

[8] = test system: E. coli Ec13; assay: BMD susceptibility test; assay type: cell-based, Escherichia coli; details: unit assumed
[9] = test system: E. coli Ec13; assay: FaAST (FDAA metabolic labeling); assay type: cell-based, Escherichia coli; details: unit assumed
Method: as §1, with “cytometry.” for “cytometry. The flow detection results are shown in the attached FIG. 4-5, showing the curve of antibiotic concentration gradient and fluorescence intensity, and the MIC (minimum inhibitory concentration) is obtained by referring to this curve.”

[10] = test system: Ec ATCC 25922; assay: BMD susceptibility test; assay type: cell-based, Escherichia coli; details: unit assumed
[11] = test system: A. baumannii Ab16; assay: BMD susceptibility test; assay type: cell-based, Acinetobacter baumannii; details: unit assumed
[12] = test system: A. baumannii Ab16; assay: FaAST (FDAA metabolic labeling); assay type: cell-based, Acinetobacter baumannii; details: unit assumed
Method: as §1, with “cytometry.” for “cytometry. The flow detection results are shown in the attached FIG. 4-5, showing the curve of antibiotic concentration gradient and fluorescence intensity, and the MIC (minimum inhibitory concentration) is obtained by referring to this curve.”

[13] = test system: A. baumannii Ab19; assay: BMD susceptibility test; assay type: cell-based, Acinetobacter baumannii; details: unit assumed
[14] = test system: A. baumannii Ab19; assay: FaAST (FDAA metabolic labeling); assay type: cell-based, Acinetobacter baumannii; details: unit assumed
Method: as §1, §2

[15] = test system: K. pneumoniae Kp6; assay: BMD susceptibility test; assay type: cell-based, Klebsiella pneumoniae; details: unit assumed
[16] = test system: K. pneumoniae Kp9; assay: BMD susceptibility test; assay type: cell-based, Klebsiella pneumoniae; details: unit assumed
[17] = test system: K. pneumoniae Kp6; assay: FaAST (FDAA metabolic labeling); assay type: cell-based, Klebsiella pneumoniae; details: unit assumed
Method: as §1, with “cytometry.” for “cytometry. The flow detection results are shown in the attached FIG. 4-5, showing the curve of antibiotic concentration gradient and fluorescence intensity, and the MIC (minimum inhibitory concentration) is obtained by referring to this curve.”

[18] = test system: K. pneumoniae Kp9; assay: FaAST (FDAA metabolic labeling); assay type: cell-based, Klebsiella pneumoniae; details: unit assumed
Method: as §1, with “cytometry.” for “cytometry. The flow detection results are shown in the attached FIG. 4-5, showing the curve of antibiotic concentration gradient and fluorescence intensity, and the MIC (minimum inhibitory concentration) is obtained by referring to this curve.”

[19] = test system: bacteria contained in alveolar lavage fluid; assay: FDAA metabolic labeling susceptibility test of alveolar lavage fluid (Cy5-DAA probe); assay type: cell-based; details: alveolar lavage fluid of patients with hospital acquired pneumonia, 2 hours
Method: (§3) With reference to the flow chart of the rapid detection method of antimicrobial susceptibility test based on FDAA metabolic markers shown in FIG. 3, FDAA is used for the detection of antimicrobial susceptibility test of alveolar lavage fluid. The specific experimental steps are as follows: • 1. Mix bronchoalveolar lavage fluid (BALF, 10 ml) of patients with hospital acquired pneumonia with cation regulated broth medium (CAMHB, 10 ml) of twice the concentration to prepare the bacterial fluid to be tested. • 2. Add 45 μl antibiotic solutions of different concentrations to the 96-well plate separately (see Table 1 for antibiotic concentration gradient settings). • 3. Add 50 μl of the bacterial solution prepared in step 1 to the 96-well plate and mix well. • 4. Add 5 μl of 10 mM Cy5-DAA probe (final concentration 0.15 mM, see FIG. 1 for its structure) into each well, mix well, and then cultivate in dark for 2 hours. • 5. Add 200 μl PBS solution for dilution, and then use flow cytometry to detect the fluorescence intensity of each sample.

[20] = test system: bacteria contained in alveolar lavage fluid; assay: Vitek 2 drug sensitivity test of alveolar lavage fluid; assay type: cell-based; as to Sensibility: key: S: Drug sensitive; R: Drug resistance
[21] = test system: alveolar lavage fluid sample 0130, A. baumannii; assay: BMD susceptibility test of patient alveolar lavage fluid; assay type: cell-based, Acinetobacter baumannii; details: unit assumed
Excerpt: (§4) The results of antimicrobial susceptibility test of alveolar lavage fluid of seven patients using FDAA and BMD methods are shown in the following table. The drug-resistant bacteria are shown in bold.

[22] = test system: alveolar lavage fluid sample 0206, A. baumannii; assay: as above; assay type: cell-based, Acinetobacter baumannii; details: unit assumed
Excerpt: as §4

[23] = test system: alveolar lavage fluid sample 0219, A. baumannii; assay: as above; assay type: cell-based, Acinetobacter baumannii; details: unit assumed
Excerpt: as §4

[24] = test system: alveolar lavage fluid sample 0130, A. baumannii; assay: FaAST (FDAA) susceptibility test of patient alveolar lavage fluid; assay type: cell-based, Acinetobacter baumannii; details: unit assumed
Method: as §3, §4

[25] = test system: alveolar lavage fluid sample 0204, A. baumannii; assay: as above; assay type: cell-based, Acinetobacter baumannii; details: unit assumed
Method: as §3, §4

[26] = test system: alveolar lavage fluid sample 0206, A. baumannii; assay: as above; assay type: cell-based, Acinetobacter baumannii; details: unit assumed
Method: as §3, §4

[27] = test system: alveolar lavage fluid sample 0219, A. baumannii; assay: as above; assay type: cell-based, Acinetobacter baumannii; details: unit assumed
Method: as §3, §4

[28] = test system: alveolar lavage fluid sample 0204, A. baumannii; assay: BMD susceptibility test of patient alveolar lavage fluid; assay type: cell-based, Acinetobacter baumannii; details: unit assumed
[29] = test system: alveolar lavage fluid sample 0203, K. pneumoniae; assay: as above; assay type: cell-based, Klebsiella pneumoniae; details: unit assumed
Excerpt: as §4

[30] = test system: alveolar lavage fluid sample 0226, K. pneumoniae; assay: as above; assay type: cell-based, Klebsiella pneumoniae; details: unit assumed
Excerpt: as §4

[31] = test system: alveolar lavage fluid sample 0203, K. pneumoniae; assay: FaAST (FDAA) susceptibility test of patient alveolar lavage fluid; assay type: cell-based, Klebsiella pneumoniae; details: unit assumed
Method: as §3, §4

[32] = test system: alveolar lavage fluid sample 0226, K. pneumoniae; assay: as above; assay type: cell-based, Klebsiella pneumoniae; details: unit assumed
Method: as §3, §4

[33] = test system: Ec ATCC 25922; details: cited from earlier work

Compound: CN(C)c1cc(NC(=O)CNC(C)(C)C)c(O)c2c1C[C@H]1C[C@H]3[C@H](N(C)C)C(O)=C(C(N)=O)C(=O)[C@@]3(O)C(O)=C1C2=O [Tigecycline, tigecycline]
- MIC [1]: 1 µg/mL (≈ 1.71 µM)
- MIC [2]: 0.25 µg/mL (≈ 0.427 µM)
- MIC, Vitek 2 [3]: < 1 µg/mL
- Sensibility [3]: S
- Sensibility [4]: S
- MIC ([4]; Escherichia coli): ≤ 0.25 µg/mL
- BMD (MIC) [5]: ≤ 0.25 µg/mL
- FaAST (MIC) [6]: ≤ 0.25 µg/mL
- FaAST (MIC) [7]: ≤ 0.25 µg/mL
- BMD (MIC) [8]: ≤ 0.25 µg/mL
- FaAST (MIC) [9]: ≤ 0.25 µg/mL
- BMD (MIC) [10]: ≤ 0.25 µg/mL
- BMD (MIC) [11]: ≤ 0.25 µg/mL
- FaAST (MIC) [12]: ≤ 0.25 µg/mL
- BMD (MIC) [13]: ≤ 0.25 µg/mL
- FaAST (MIC) [14]: 0.5 µg/mL
- BMD (MIC) [15]: ≤ 0.25 µg/mL
- BMD (MIC) [16]: 0.5 µg/mL
- FaAST (MIC) [17]: ≤ 0.25 µg/mL
- FaAST (MIC) [18]: 0.25 µg/mL
- MIC, FDAA [19]: 4 µg/mL (≈ 6.83 µM)
- MIC [20]: 2 µg/mL (≈ 3.41 µM)
- Sensibility [20]: S
- BMD (MIC) [21]: 2 µg/mL
- BMD (MIC) [22]: 1 µg/mL
- BMD (MIC) [23]: 1 µg/mL
- FaAST (MIC) [24]: 2 µg/mL
- FaAST (MIC) [25]: 0.5 µg/mL
- FaAST (MIC) [26]: 8 µg/mL
- FaAST (MIC) [27]: 64 µg/mL
- BMD (MIC) [28]: 0.5 µg/mL
- BMD (MIC) [29]: 1 µg/mL
- BMD (MIC) [30]: 1 µg/mL
- FaAST (MIC) [31]: 0.125 µg/mL
- FaAST (MIC) [32]: 0.5 µg/mL
- CLSI QC range [33]: 0.03-0.25

Compound: Polymyxin B
- BMD (MIC) [5]: 2 µg/mL
- FaAST (MIC) [6]: 2 µg/mL
- FaAST (MIC) [7]: 2 µg/mL
- BMD (MIC) [8]: 8 µg/mL
- FaAST (MIC) [9]: 8 µg/mL
- BMD (MIC) [10]: 2 µg/mL
- BMD (MIC) [15]: 0.5 µg/mL
- BMD (MIC) [16]: 16 µg/mL
- FaAST (MIC) [17]: 1 µg/mL
- FaAST (MIC) [18]: 32 µg/mL
- CLSI QC range [33]: 0.25-2
